Tests used:
[1] = target: T1, Serine/threonine-protein kinase ULK1 (Homo sapiens) (UniProt O75385); experiment: Inhibition of ULK1 Lys2 labeling site in human A-375 cells at 0.5 uM by KiNativ Profiling analysis relative to control; format: cell-based
T1 sequence (whole entry): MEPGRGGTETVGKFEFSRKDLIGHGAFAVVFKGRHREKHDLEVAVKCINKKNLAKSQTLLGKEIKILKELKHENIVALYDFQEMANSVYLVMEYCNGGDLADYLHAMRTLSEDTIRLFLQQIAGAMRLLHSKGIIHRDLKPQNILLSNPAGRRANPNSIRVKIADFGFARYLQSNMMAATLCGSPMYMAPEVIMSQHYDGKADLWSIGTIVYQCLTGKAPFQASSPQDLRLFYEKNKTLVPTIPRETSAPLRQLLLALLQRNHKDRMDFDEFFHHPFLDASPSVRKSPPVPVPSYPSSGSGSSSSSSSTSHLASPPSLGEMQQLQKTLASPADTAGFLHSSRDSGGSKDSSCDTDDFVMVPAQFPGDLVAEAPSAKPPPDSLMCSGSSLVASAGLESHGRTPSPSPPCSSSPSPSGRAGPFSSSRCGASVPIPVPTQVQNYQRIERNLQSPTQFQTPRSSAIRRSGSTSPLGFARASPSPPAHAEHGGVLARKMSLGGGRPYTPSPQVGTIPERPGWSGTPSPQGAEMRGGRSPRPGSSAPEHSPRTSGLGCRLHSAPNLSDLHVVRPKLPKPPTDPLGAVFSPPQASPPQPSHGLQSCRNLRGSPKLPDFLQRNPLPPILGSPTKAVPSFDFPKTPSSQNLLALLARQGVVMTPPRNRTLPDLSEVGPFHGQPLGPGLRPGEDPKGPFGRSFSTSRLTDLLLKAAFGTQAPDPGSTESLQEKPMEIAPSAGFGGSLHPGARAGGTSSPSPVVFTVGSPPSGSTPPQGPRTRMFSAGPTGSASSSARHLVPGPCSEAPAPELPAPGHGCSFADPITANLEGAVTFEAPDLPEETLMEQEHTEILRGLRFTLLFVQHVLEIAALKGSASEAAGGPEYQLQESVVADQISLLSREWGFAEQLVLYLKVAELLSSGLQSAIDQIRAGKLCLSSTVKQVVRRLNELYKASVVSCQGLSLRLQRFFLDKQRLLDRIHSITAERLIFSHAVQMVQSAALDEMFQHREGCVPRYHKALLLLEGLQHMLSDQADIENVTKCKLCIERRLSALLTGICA

[2] = target: Tyrosine-protein kinase Srms (Homo sapiens) (UniProt Q9H3Y6); experiment: Inhibition of SRMS (unknown origin) at 10 uM by Ambit Kinomescan binding assay relative to control; values are per cent of control
[3] = target: Serine/threonine-protein kinase 38 (Homo sapiens) (UniProt Q15208); experiment: Inhibition of NDR1 ACT labeling site in human Huh-7 cell lysate at 1 uM by KiNativ Profiling analysis relative to control; format: subcellular
[4] = test system: Tyrosine-protein kinase ABL1 (Homo sapiens), P00519 [F317L]; experiment: Inhibition of phosphorylated ABL1 F317L mutant (unknown origin) at 1 uM by Ambit Kinomescan binding assay relative to control; values are per cent of control
[5] = target: Serine/threonine-protein kinase MARK1 (Homo sapiens) (UniProt Q9P0L2); experiment: Inhibition of MARK1 Lys2 labeling site in human A-375 cells at 5 uM by KiNativ Profiling analysis relative to control; format: cell-based
[6] = target: Serine/threonine-protein kinase mTOR (Homo sapiens) (UniProt P42345); experiment: Inhibition of MTOR (unknown origin) at 1 uM by Ambit Kinomescan binding assay relative to control
[7] = target: T2, Receptor-interacting serine/threonine-protein kinase 4 (Homo sapiens) (UniProt P57078); experiment: Inhibition of ANKRD3 Lys1 labeling site in human A-375 cells at 0.5 uM by KiNativ Profiling analysis relative to control; format: cell-based
T2 sequence (whole entry): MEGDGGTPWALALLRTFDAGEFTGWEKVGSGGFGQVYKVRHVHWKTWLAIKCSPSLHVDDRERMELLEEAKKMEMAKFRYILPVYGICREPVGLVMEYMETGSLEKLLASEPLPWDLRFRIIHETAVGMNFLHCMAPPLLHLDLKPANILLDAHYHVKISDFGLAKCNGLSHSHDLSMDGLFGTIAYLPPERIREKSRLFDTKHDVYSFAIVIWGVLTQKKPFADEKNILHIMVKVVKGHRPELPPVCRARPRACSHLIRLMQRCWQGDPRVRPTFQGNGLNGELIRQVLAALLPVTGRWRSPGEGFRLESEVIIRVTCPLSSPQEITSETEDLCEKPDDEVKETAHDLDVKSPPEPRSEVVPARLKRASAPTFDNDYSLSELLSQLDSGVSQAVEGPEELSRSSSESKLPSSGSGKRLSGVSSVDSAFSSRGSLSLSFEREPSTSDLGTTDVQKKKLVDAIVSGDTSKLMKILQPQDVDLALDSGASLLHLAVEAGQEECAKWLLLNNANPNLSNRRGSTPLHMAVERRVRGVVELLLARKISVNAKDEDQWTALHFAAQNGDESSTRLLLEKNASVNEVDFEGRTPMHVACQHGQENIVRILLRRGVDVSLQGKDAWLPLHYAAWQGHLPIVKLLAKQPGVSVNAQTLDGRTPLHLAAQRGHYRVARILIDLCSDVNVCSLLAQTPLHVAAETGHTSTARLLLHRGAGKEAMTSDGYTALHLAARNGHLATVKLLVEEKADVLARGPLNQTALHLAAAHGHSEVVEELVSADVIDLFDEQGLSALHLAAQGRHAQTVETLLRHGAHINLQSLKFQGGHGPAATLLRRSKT

[8] = target: T3, Dual specificity mitogen-activated protein kinase kinase 7 (Homo sapiens) (UniProt O14733); experiment: Inhibition of MKK7 (unknown origin) at 1 uM by Ambit Kinomescan binding assay relative to control
T3 sequence (whole entry): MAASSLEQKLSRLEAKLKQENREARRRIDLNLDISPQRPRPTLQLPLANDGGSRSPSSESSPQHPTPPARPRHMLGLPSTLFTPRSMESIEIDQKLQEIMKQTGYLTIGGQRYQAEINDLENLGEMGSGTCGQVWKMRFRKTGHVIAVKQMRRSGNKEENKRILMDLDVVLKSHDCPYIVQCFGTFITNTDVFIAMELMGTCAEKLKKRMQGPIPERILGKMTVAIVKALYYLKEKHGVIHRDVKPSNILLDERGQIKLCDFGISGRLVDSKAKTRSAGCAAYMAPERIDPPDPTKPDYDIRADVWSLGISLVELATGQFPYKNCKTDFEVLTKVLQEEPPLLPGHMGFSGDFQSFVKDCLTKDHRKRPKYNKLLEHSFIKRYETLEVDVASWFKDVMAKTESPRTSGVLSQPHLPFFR

[9] = target: Angiopoietin-1 receptor (Homo sapiens) (UniProt Q02763); experiment: Inhibition of TIE2 (unknown origin) at 1 uM by Ambit Kinomescan binding assay relative to control
Angiopoietin-1 receptor (Homo sapiens), sequence (Q02763 whole entry): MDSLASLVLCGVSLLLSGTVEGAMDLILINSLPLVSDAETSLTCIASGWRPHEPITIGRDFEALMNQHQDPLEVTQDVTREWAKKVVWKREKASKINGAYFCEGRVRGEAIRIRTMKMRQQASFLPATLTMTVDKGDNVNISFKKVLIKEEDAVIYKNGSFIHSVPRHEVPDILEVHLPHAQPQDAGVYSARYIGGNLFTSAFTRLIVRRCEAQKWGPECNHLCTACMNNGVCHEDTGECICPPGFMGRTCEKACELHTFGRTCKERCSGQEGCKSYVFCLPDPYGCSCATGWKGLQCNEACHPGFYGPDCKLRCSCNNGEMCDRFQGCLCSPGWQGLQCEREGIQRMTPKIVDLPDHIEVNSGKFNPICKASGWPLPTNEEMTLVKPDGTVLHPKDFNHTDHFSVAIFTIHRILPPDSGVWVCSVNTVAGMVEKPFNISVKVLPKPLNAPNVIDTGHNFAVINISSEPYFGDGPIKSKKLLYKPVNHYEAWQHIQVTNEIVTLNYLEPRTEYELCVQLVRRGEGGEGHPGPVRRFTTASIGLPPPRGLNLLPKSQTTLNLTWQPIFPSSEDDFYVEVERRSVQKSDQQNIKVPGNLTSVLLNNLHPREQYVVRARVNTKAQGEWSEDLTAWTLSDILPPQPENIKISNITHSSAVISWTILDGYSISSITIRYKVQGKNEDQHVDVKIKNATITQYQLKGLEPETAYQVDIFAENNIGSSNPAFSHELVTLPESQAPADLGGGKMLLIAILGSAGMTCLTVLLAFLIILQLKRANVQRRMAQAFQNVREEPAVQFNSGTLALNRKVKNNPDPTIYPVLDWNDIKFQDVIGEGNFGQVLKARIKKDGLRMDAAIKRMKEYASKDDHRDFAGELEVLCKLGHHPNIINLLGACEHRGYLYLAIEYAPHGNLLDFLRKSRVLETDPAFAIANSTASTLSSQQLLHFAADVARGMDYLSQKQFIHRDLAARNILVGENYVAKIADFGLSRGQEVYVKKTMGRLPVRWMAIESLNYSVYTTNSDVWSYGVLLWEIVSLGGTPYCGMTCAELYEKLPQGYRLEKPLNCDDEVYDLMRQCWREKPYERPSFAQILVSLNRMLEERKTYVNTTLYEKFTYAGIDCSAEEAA

Serine/threonine-protein kinase MARK1 (Homo sapiens), sequence (Q9P0L2 whole entry, looked up): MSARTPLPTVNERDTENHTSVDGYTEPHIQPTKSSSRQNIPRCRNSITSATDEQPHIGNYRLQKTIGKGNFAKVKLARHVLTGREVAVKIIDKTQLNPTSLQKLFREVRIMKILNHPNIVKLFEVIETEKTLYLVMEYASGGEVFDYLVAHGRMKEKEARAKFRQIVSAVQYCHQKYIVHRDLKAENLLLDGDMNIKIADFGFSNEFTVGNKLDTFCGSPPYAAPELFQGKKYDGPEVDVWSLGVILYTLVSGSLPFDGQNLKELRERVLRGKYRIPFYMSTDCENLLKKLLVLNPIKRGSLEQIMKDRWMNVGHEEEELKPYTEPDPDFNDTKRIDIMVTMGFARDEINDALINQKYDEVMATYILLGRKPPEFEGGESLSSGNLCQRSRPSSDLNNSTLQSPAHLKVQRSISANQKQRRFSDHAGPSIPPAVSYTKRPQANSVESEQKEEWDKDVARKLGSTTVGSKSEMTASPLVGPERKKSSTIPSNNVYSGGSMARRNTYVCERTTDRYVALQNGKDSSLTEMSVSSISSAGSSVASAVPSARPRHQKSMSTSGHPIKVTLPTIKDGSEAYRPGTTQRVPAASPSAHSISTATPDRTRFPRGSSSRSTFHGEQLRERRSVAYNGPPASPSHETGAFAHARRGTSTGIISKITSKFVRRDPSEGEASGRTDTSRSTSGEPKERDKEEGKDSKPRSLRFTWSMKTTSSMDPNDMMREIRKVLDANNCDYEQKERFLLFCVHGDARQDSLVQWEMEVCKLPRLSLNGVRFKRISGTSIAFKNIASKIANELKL
Serine/threonine-protein kinase 38 (Homo sapiens), sequence (Q15208 2-465 limits assumed): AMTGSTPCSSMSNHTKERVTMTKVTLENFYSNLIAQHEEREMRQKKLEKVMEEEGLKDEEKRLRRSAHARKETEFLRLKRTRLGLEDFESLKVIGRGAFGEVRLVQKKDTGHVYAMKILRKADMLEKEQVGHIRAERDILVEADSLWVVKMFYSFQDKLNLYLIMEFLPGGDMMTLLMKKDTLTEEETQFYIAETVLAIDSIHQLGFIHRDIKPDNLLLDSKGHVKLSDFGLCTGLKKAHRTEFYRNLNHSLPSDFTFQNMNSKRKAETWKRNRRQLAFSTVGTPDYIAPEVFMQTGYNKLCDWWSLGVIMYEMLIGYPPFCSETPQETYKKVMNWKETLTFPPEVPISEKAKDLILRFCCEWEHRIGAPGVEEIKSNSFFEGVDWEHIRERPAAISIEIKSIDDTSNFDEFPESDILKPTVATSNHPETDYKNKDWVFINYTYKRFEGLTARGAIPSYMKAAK
Tyrosine-protein kinase ABL1 (Homo sapiens), P00519 [F317L], sequence (P00519 whole entry F317L): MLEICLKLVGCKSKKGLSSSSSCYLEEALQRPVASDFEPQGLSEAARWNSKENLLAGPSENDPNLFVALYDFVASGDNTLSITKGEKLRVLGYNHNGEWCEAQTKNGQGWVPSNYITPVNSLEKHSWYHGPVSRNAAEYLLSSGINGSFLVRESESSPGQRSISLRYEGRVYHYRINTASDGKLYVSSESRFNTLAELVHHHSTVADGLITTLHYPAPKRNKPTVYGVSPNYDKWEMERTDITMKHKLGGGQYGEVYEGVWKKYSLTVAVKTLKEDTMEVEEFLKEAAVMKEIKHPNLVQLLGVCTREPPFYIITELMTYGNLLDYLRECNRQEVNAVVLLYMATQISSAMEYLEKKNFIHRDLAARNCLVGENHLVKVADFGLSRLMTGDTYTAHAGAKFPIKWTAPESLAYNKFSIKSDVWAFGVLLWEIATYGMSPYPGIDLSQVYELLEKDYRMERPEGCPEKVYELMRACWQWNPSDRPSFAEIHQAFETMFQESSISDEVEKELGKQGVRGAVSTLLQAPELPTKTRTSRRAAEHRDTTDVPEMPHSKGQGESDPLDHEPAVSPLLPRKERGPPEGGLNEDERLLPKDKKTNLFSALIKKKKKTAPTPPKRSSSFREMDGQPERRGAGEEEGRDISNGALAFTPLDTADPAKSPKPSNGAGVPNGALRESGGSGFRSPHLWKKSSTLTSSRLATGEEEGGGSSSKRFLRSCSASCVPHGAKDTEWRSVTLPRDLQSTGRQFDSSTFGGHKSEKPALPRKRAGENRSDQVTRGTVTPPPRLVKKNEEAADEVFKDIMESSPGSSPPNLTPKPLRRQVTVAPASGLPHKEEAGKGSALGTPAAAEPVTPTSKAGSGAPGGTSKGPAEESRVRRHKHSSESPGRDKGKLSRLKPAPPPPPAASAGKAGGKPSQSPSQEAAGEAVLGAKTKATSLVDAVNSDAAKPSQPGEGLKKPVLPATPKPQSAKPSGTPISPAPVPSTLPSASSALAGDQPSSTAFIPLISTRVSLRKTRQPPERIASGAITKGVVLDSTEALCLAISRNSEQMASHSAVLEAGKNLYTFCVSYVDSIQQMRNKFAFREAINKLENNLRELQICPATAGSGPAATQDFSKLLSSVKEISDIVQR
Tyrosine-protein kinase Srms (Homo sapiens), sequence (Q9H3Y6 whole entry): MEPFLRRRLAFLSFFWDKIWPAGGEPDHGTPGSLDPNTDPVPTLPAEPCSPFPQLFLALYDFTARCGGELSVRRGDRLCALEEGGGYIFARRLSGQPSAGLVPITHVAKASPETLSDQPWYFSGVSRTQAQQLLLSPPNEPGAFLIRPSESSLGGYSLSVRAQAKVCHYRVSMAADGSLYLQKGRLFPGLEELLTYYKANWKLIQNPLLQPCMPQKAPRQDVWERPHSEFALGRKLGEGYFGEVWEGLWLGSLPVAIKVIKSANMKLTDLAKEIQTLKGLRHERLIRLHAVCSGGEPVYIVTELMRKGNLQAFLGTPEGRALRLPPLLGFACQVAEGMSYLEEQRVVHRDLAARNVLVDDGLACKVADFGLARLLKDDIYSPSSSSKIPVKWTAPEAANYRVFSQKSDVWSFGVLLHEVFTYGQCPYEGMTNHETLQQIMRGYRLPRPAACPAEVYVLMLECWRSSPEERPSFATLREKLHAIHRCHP

Question: Which inhibition [1] does the source give for `CCN1CCN(Cc2ccc(NC(=O)c3ccc(C)c(Oc4ccnc5[nH]ccc45)c3)cc2C(F)(F)F)CC1` here?
Answer: -6.3%

Question: What about the residual activity [2] of the same compound?
Answer: 4.6%

Question: Which inhibition [3] does the source give for `CNc1cc(Oc2cc(C(=O)Nc3cc(N4CCN(C)CC4)cc(C(F)(F)F)c3)ccc2C)ncn1` here?
Answer: 4.2%

Question: For `CCN1CCN(Cc2ccc(NC(=O)c3ccc(C)c(/C=C/c4cnc5[nH]ccc5c4OC)c3)cc2C(F)(F)F)CC1`, which percent of control [4] is on record?
Answer: 3.4%

Question: And the inhibition [5]?
Answer: 13%

Question: What about the inhibition [6] of the same compound?
Answer: 100%

Question: And the inhibition [7]?
Answer: 23.7%

Question: What about the inhibition [8] of the same compound?
Answer: 39%

Question: And the inhibition [9]?
Answer: 0%
